Source: US8309545B2, “Benzofuran potassium channel blockers and uses thereof” (Bionomics Limited, priority 2006, dated 2012)

Biological target: T1, human Kv1.3 ion channel (Homo sapiens, UniProt P22001)
T1 construct: Human Jurkat cells (which endogenously express hKv1.3) were used in place of rat L929 cells; endogenous in cells; host or cells: Human Jurkat cells
Assay: Inhibition of Kv1.3 currents, planar patch clamp in Jurkat cells
Format: cell-based
Conditions: Human Jurkat cells (endogenous hKv1.3), averaged dose response data from 3 or more cells
Method: Potency of compounds to inhibit the human Kv1.3 ion channel were determined as follows:
EC50 values for inhibition of Kv1.3 currents were determined by the method according to Schmitz et al (2005) Molecular Pharmacology 68, 1254-1270 with the following differences: • 1. Human Jurkat cells (which endogenously express hKv1.3) were used in place of rat L929 cells. • 2. All electrophysiology was performed using planar patch clamp (Port-A-Patch, Nanion Technologies Gmbh, Munich) in contrast to conventional patch clamp. • 3. EC50 values shown were determined from averaged dose response data obtained from 3 or more cells.

T1 sequence (P22001 whole entry): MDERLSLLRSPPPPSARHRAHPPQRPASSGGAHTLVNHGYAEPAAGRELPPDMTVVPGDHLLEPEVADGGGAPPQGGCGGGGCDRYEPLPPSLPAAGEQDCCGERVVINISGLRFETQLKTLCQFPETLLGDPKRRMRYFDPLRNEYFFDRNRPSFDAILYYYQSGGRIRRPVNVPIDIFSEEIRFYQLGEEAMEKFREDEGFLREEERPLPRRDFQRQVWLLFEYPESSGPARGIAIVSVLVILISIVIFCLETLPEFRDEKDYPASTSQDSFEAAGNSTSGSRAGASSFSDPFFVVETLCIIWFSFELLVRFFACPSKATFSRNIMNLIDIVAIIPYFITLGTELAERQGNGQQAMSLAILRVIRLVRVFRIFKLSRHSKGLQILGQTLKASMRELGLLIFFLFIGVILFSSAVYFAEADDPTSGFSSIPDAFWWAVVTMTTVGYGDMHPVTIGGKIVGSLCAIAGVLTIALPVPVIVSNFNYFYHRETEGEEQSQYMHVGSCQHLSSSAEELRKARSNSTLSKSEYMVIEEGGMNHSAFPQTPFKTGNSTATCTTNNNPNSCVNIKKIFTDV

Row | Compound | EC50
1 | CC(=O)c1c(OCCn2ccnn2)c(OCCCc2ccccc2)c2occc2c1C [Example 36, 1-[4-Methyl-7-(3-phenyl-propoxy)-6-(2-[1,2,3]triazol-1-yl-ethoxy)-benzofuran-5-yl]-ethanone] | 122 nM
2 | CC(=O)c1c(OCCn2cncn2)c(OCCCc2ccccc2)c2occc2c1C [Example 37, 1-[4-Methyl-7-(3-phenyl-propoxy)-6-(2-[1,2,4]triazol-1-yl-ethoxy)-benzofuran-5-yl]-ethanone] | 74 nM
3 | CC(=O)c1c(OCCNCCO)c(OCCCc2ccccc2)c2occc2c1C [Example 39, 5-Acetyl-6-(2-(2-Hydroxy-ethylamino)-ethoxy)-4-methyl-7-(3-phenylpropoxy)-benzofuran] | 576 nM
4 | CC(=O)c1c(OCCc2ccccn2)c(OCCC(C)c2ccc(F)cc2)c2occc2c1C (stereo not shown) [Example 44d, 5-Acetyl-7-(3-[4-fluorophenyl]butoxy)-4-methyl-6-(2-pyridin-2-yl-ethoxy)benzofuran] | 22 nM
5 | CC(=O)c1c(OCCNC2CCCC2)c(OCCC(C)c2ccc(F)cc2)c2occc2c1C (stereo not shown) [Example 45b, 5-Acetyl-7-(3-[4-fluorophenyl]butoxy)-4-methyl-6-(2-Cyclopentylamino-ethoxy)benzofuran] | 43 nM
6 | CC(=O)c1c(O)c(OCCC(C)c2ccccc2)c2occc2c1C (stereo not shown) [Example 50a, 1-[6-Hydroxy-4-methyl-7-(3-RS-phenylbutoxy)-benzofuran-5-yl]-ethanone] | 423 nM
7 | CC(=O)c1c(OCCN2CCOCC2)c(OCCC(C)c2ccccc2)c2occc2c1C (stereo not shown) [Example 50b, 1-[4-Methyl-6-(2-morpholin-4-yl-ethoxy)-7-(3-phenyl-butoxy)-benzofuran-5-yl]-ethanone] | 16 nM

The remaining lines, values ahead:

Row | EC50 | Compound
8 | 66 nM | CC(=O)c1c(OCCc2ccccn2)c(OCCCc2ccccc2)c2occc2c1C [Example 40, 5-Acetyl-4-methyl-7-(3-phenylpropoxy)-6-(2-pyridin-2-yl-ethoxy)benzofuran]
9 | 215 nM | CC(=O)c1c(OCCN2CCOCC2)c(OCCCc2ccccc2)c2oc(Cl)cc2c1C [Example 41, 1-[2-Chloro-4-methyl-6-(2-morpholin-4-yl-ethoxy)-7-(3-phenyl-propoxy)-benzofuran-5-yl]-ethanone]
10 | 480 nM | CC(=O)c1c(OCC(=O)N2CCOCC2)c(OCCCc2ccccc2)c2occc2c1C [Example 42, 2-[5-Acetyl-4-methyl-7-(3-phenyl-propoxy)-benzofuran-6-yloxy]-1-morpholin-4-yl-ethanone]
11 | 229 nM | Cc1cc(=O)c2c(C)c3ccoc3c(OCCOc3ccc(F)cc3)c2o1 [Example 43b, 9-[2-(4-Fluoro-phenoxy)-ethoxy]-4,7-dimethyl-furo[3,2-g]chromen-5-one]
12 | 954 nM | CC(=O)c1c(O)c(OCCOc2ccc(F)cc2)c2occc2c1C [Example 43c, 5-Acetyl-7-(2-(4-fluorophenoxy)-ethoxy)-6-hydroxy-4-methylbenzofuran]
13 | 286 nM | CC(=O)c1c(OCCN2CCOCC2)c(OCCOc2ccc(F)cc2)c2occc2c1C [Example 43e, 1-[7-[2-(4-Fluoro-phenoxy)-ethoxy]-4-methyl-6-(2-morpholin-4-yl-ethoxy)-benzofuran-5-yl]-ethanone]
14 | 531 nM | CC(=O)c1c(O)c(OCCCc2ccc(F)cc2)c2occc2c1C [Example 47a, 5-Acetyl-7-(3-(4-fluorophenyl)propoxy)-6-hydroxy-4-methylbenzofuran]
15 | 74 nM | CC(=O)c1c(OCCN2CCOCC2)c(OCCCc2ccc(F)cc2)c2occc2c1C [Example 47b, 5-Acetyl-7-(3-(4-fluorophenyl)propoxy)-4-methyl-6-(2-morpholinoethoxy)benzofuran]
16 | 47 nM | CC(=O)c1c(OCCNC2CCCC2)c(OCCCc2ccc(F)cc2)c2occc2c1C [Example 48, 1-[6-(2-Cyclopentylamino-ethoxy)-4-methyl-7-(3-(4-fluoro-phenyl)-propoxy)-benzofuran-5-yl]-ethanone]
